From patent publication US20250270227A1, “CAMPTOTHECIN DERIVATIVE, AND PHARMACEUTICAL COMPOSITION AND USE THEREOF” (SIMCERE ZAIMING PHARMACEUTICAL CO., LTD., priority 2021, published 2025) come the findings set out here.

In general, IC50 refers to the concentration at which inhibition is half-maximal.

Molecules are shown by their SMILES. Where two headings read alike, the source gives them in different places. A value given as a limit tells only on which side of the number the result lay.

Data set [1] can be described thus: Metabolic stability in liver microsomes. Format: in vitro ADME, human. The note with it: for half-life at 1 μM: human, microsomes. As for the experimental part:
The metabolic stability of the compounds of the present disclosure in liver microsomes was determined by the following experimental method.
• 1. Human liver microsomes (Corning 452117), Beagle dog liver microsomes (XENOTECH D1000), SD rat liver microsomes (XENOTECH R1000) and CD-1 mouse liver microsomes (XENOTECH M1000) • 2. Na2HPO4 (Tianjin Guangfu Fine Chemical Research Institute 20180130) • 3. KH2PO4 (Tianjin Guangfu Fine Chemical Research Institute 20180920) • 4. MgCl2 (Tianjin Guangfu Fine Chemical Research Institute 20191216) • 5. NADPH (Solarbio 1216C022) • 6. Positive control compound verapamil (Sigma MKBV4993V) • 7. AB Sciex API4000 liquid chromatography-mass spectrometry
• 1. Preparation of 100 mM phosphate buffered saline (PBS): 7.098 g of Na2HPO4 was weighed, 500 mL of pure water was added and subjected to ultrasonic dissolution to obtain solution A. 3.400 g of KH2PO4 was weighed, 250 mL of pure water was added and subjected to ultrasonic dissolution to obtain solution B. Solution A was placed on a stirrer and solution B was slowly added until the pH value reached 7.4 to prepare 100 mM PBS buffer. • 2. Preparation of reaction system
The reaction system was prepared according to the following table:
• 3. The reaction system was placed in a 37° C. water bath and pre-incubated for 10 min. 40 μL of 10 mM NADPH solution (NADPH was dissolved in 100 mM phosphate buffer) was added to the reaction system with the final concentration of NADPH being 1 mM. 40 μL of phosphate buffer was used instead of NADPH solution as negative control. The role of the negative control was to exclude the effect of the chemical stability of the compounds themselves. • 4. 4 μL of 100 μM compound of the present disclosure and the positive control compound verapamil were added to the reaction system to initiate the reaction, with the final concentration of the compound being 1 μM. • 5. After thorough mixing on a vortex oscillator, 50 μL of the incubated sample was taken out at 0.5 min, 15 min, 30 min, 45 min and 60 min, respectively, and the reaction was stopped with 200 μL of glacial acetonitrile containing internal standard. The sample was centrifuged at 3220 g for 45 min. […]
All the data was calculated by the Microsoft Excel software. The peak area was detected by extracting the ion chromatogram. The in vitro half-life (t1/2) of the compound was determined by performing linear fitting of the natural logarithm of elimination percent of the compound and time.
The in vitro half-life (t1/2) was calculated by means of the slope k: […]
The in vitro intrinsic clearance (unit: μL/min/mg protein) was calculated using the following equation: […]
On the technique in general: Liver microsomes are vesicles of endoplasmic reticulum, rich in cytochrome P450 enzymes.

The next data set has as its target CYP2D6 (Homo sapiens (Human), UniProt P10635). The data set is described as follows: Inhibitory effect on CYP enzymatic activity in human liver microsomes. The class given is in vitro ADME. As for the experimental part: (§1) The inhibition of CYP2C9, CYP2D6 and CYP3A4 enzymatic activities by the compounds of the present disclosure was determined by the following experimental method.
(§2) • 1. Human liver microsomes (Corning 452117) • 2. NADPH (Solarbio 705Y021) • 3. Positive substrates diclofenac (Sigma SLBV3438), dextromethorphan (TRC 3-EDO-175-1) and midazolam (Cerilliant FE01161704) • 4. Positive inhibitors sulfaphenazole (D. Ehrenstorfer GmbH 109012), quinidine (TCI WEODL-RE) and ketoconazole (Sigma 100M1091V) • 5. AB Sciex Triple Quad 5500 liquid chromatography-mass spectrometry
(§3) • 1. Preparation of 100 mM phosphate buffered saline (PBS): 7.098 g of Na2HPO4 was weighed, 500 mL of pure water was added and subjected to ultrasonic dissolution to obtain solution A. 3.400 g of KH2PO4 was weighed, 250 mL of pure water was added and subjected to ultrasonic dissolution to obtain solution B. Solution A was placed on a stirrer and solution B was slowly added until the pH value reached 7.4 to prepare 100 mM PBS buffer. • 2. Preparation of 10 mM NADPH solution with 100 mM PBS buffer. The 10 mM stock solution of the compound of the present disclosure was diluted with DMSO to obtain a 200× concentration of compound working solution (6000, 2000, 600, 200, 60, 20, 0 μM). The stock solution of positive inhibitors was diluted with DMSO to obtain a 200× concentration of positive inhibitor working solution (sulfaphenazole, 1000, 300, 100, 30, 10, 3, 0 μM; quinidine/ketoconazole, 100, 30, 10, 3, 1, 0.3, 0 μM). A 200× concentration of substrate working solution (120 μM diclofenac, 400 μM dextromethorphan, and 200 μM midazolam) was prepared with water, acetonitrile, or acetonitrile/methanol. • 3. 2 μL of 20 mg/ml liver microsome solution, 1 μL of substrate working solution, 1 μL of compound working solution and 176 μL of PBS buffer were taken, mixed uniformly, and pre-incubated in a 37° C. water bath for 15 min. To the positive control group was added 1 μL of sulfaphenazole, quinidine or ketoconazole working solution instead of compound working solution. A 10 mM NADPH solution was also pre-incubated in the 37° C. water bath for 15 min. After 15 min, 20 μL of NADPH was taken and added to each well to initiate the reaction, and the reaction was incubated at 37° C. for 5 min (CYP2C9), 20 min (CYP2D6) or 5 min (CYP3A4). Double samples were set for all incubation samples. After the corresponding time of incubation, 400 μL of glacial methanol containing internal standard was added to all samples to stop the reaction. The mixture was mixed uniformly by vortex and centrifuged at 3220 g for 40 min at 4° C. After the completion of the centrifugation, 100 μL of the supernatant was transferred to a loading plate, and 100 μL of ultrapure water was added and mixed uniformly for LC-MS/MS analysis.
(§4) The reduction in metabolite production in the administration group compared to the control group was compared by the ratio of sample peak area to internal standard peak area, and IC50 value was calculated by Excel XLfit 5.3.1.3.
(§5) The percent remaining activity was calculated by the following equation: […]

Another data set deals with CYP3A4 (Homo sapiens (Human), UniProt P08684). The description is as above. Format: in vitro ADME. As for the experimental part: as §1, §2, §3, §4, §5
[2] abbreviates: pH 7.4, human liver microsomes 0.5 mg/mL, 1 μM compound, 1 mM NADPH, 37° C., read-out: Stability in human liver microsomes t1/2.

CYP2D6, sequence (P10635 whole entry): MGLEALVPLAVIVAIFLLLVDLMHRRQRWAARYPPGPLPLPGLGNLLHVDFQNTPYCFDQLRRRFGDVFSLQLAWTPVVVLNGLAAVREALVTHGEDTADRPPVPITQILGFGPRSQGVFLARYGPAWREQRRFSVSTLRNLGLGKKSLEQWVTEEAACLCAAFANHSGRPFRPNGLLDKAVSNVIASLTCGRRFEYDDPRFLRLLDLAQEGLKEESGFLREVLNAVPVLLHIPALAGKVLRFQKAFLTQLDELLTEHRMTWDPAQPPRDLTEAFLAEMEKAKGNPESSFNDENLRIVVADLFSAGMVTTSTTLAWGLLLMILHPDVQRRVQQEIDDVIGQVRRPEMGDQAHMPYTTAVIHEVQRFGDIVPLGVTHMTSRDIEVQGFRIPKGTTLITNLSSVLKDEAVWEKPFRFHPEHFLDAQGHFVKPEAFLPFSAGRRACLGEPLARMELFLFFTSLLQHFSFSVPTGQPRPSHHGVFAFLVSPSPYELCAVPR
CYP3A4, sequence (P08684 whole entry): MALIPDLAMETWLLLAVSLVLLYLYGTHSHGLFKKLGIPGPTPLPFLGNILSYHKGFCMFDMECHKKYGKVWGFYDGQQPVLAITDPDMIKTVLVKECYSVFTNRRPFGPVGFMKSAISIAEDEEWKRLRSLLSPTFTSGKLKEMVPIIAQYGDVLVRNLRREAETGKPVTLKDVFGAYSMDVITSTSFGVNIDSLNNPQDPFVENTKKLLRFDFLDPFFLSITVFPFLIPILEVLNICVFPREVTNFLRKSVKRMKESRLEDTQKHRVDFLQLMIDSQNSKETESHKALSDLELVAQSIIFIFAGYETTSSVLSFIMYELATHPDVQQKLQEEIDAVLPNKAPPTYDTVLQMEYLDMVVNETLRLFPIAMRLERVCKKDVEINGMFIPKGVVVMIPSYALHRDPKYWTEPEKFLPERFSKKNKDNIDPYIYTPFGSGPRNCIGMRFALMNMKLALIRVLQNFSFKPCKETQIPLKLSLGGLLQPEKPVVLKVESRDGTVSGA

Regarding `CC[C@@]1(O)C(=O)OCc2c1cc1n(c2=O)Cc2c-1nc1cc3c(cc1c2CNC(=O)C(O)C1CC1)OCO3` (single isomer, unassigned) [Compound 14-P1], the half-life at 1 μM in data set [1] (setting [2]) was determined as 66.3 min. In addition, the concentration for half-maximal inhibition (IC50) at CYP2D6 (read-out: Inhibition on CYP2D6 IC50, human liver microsomes, substrate dextromethorphan) is above 50 µM; against CYP3A4, above 50 µM.

Turning to `CC[C@@]1(O)C(=O)OCc2c1cc1n(c2=O)Cc2c-1nc1cc3c(cc1c2CNC(=O)C(O)C1CC1)OCO3` (single isomer, unassigned) [Compound 14-P2], the “Stability in human liver microsomes t1/2” value in data set [1] (human liver microsomes 0.5 mg/mL, 1 μM compound, 1 mM NADPH, 37° C.) was determined as 50.1 min. Further, the IC50 against CYP2D6 was above 50 µM; on CYP3A4 (read-out: Inhibition on CYP3A4 IC50, human liver microsomes, substrate midazolam), above 50 µM.

With `CC[C@@]1(O)C(=O)OCc2c1cc1n(c2=O)Cc2c-1nc1cc3c(c(F)c1c2CNC(=O)[C@@H](O)C1CC1)OCO3` (single isomer, unassigned) [Compound 37-P1], the half-life at 1 μM in data set [1] (pH 7.4) was 105 min. The IC50 at CYP2D6 and at CYP3A4 was above 50 µM in each case.

Turning to `[2H]C1([2H])Oc2cc3nc4c(c(CNC(=O)C(O)C5CC5)c3cc2O1)Cn1c-4cc2c(c1=O)COC(=O)[C@]2(O)CC` (stereo partly drawn) [Compound 39, 2-cyclopropyl-N-(((S)-7-ethyl-7-hydroxy-8,11-dioxo-7,8,11,13-tetrahydro-10H-[1,3]dioxolo[4,5-g]pyrano[3′,4′:6,7]indolizino[1,2-b]quinolin-14-yl-2,2-d2)methyl)-2-hydroxyacetamide], the half-life at 1 μM in data set [1] (setting [2]) came to 241 min. The IC50 against CYP2D6 and at CYP3A4 was above 50 µM each time.
